Drawing on patent US20240002354A1, “ANTIDIABETIC COMPOUNDS AND COMPOSITIONS” (REZUBIO PHARMACEUTICALS CO., LTD, priority 2020, published 2024), this text covers EC50 for 23 compounds.

Each structure is given as a SMILES string.

The test has as its target T1, GPR40 (Homo sapiens, UniProt O14842).
T1 construct: expressed in transfected cells
Description: IP1 accumulation assay (Cisbio IP-One HTRF) in HEK293 cells stably expressing GPR40. Particulars: HEK293 cells stably expressing GPR40, 37° C. for 2 hours, % Effect relative to AMG-1638 positive control. It counts as cell-based. The procedure:
IP1 accumulation assay was used to evaluate the potency of compounds. HEK293 cells stably expressing GPR40 were cultured in 5% CO2 incubator (ThermoFisher) in maintenance media (Dulbecco's modified Eagle's medium with 4.5 g/L of glucose, 10% fetal bovine serum, 100 μg/mL Hygromycin, and Penicillin (100 U/mL)/Streptomycin (100 μg/mL)) till 100% confluency. Cells were harvested freshly, spun down at 300×g for 5 min, and resuspended in pre-warmed 1× stimulant buffer from Cisbio IP-One HTRF Detection kit (Cisbio). Cell density was adjusted to 2.0×10^6 cells/mL. DMSO was used as blank control and AMG-1638 (CAS #: 1142214-62-7) as positive control. Compounds were prepared at 10 mM in DMSO and 5 nL of 3× serially diluted compounds (10 concentrations) were added to each well of the 384-LDV assay plate (Corning) by using ECHO 550 (Labcyte). Five μL of cells in suspension were transferred into each well by using Multidrop Combi Reagent Dispenser (ThermoFisher). Assay plate was then sealed and incubated at 37° C. for 2 hours. IP-d2 reagent and anti-IP1 reagent were prepared following the manual (Cisbio). Five μL of IP1-d2 and then 5 μL of anti-IP1 antibody was added to each well sequentially. Assay plate was incubated at room temperature for 60 min and then read at 665 nm/615 nm on an Envision plate reader (PerkinElmer). The ratio of values obtained at 665 nm and 615 nm was used for calculation of IP1 accumulation: % Effect=(Ratiosample−Ratioblank)/(RatioAMG-1638−Ratioblank)×100. Dose curve was fitted and EC50 of each compound was calculated by using XLFit.

T1 sequence (O14842 whole entry): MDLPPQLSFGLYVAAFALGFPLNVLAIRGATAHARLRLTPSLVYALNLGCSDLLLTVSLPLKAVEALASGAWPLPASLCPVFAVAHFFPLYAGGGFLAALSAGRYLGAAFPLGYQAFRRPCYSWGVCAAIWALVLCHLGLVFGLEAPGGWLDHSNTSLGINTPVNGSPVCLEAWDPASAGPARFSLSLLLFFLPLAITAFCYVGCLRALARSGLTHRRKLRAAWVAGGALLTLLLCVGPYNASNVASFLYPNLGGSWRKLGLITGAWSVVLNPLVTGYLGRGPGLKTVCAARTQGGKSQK

By EC50 is commonly meant the concentration at which the effect is half-maximal. Lower therefore signals higher potency in that assay. Take `COc1ccc(F)c(-c2ccc(COc3cccc([C@@H](CC(=O)O)C4CC4)c3)cc2C(C)(C)Cn2cc(CCCCCCCCCCCCCCCCCC(=O)O)nn2)c1` [Compound No. 226, (S)-18-(1-(2-(4-((3-(2-carboxy-1-cyclopropylethyl)phenoxy)methyl)-2′-fluoro-5′-methoxy-[1,1′-biphenyl]-2-yl)-2-methylpropyl)-1H-1,2,3-triazol-4-yl)octadecanoic acid]: the EC50 fell in the range of 50 to 250 nM.

Compound `COC(=O)CCCCCCCCCCCCCCCCCc1cn(CC(C)(C)c2cc(COc3cccc([C@@H](CC(=O)O)C4CC4)c3)ccc2-c2cc(OC)ccc2F)nn1` [Compound No. 227, (S)-3-cyclopropyl-3-(3-((2′-fluoro-5′-methoxy-2-(1-(4-(18-methoxy-18-oxooctadecyl)-1H-1,2,3-triazol-1-yl)-2-methylpropan-2-yl)-[1,1′-biphenyl]-4-yl)methoxy)phenyl)propanoic acid] registered a concentration for a half-maximal effect (EC50) of at least 5000 nM.

The compound `C#CCOCC(C)(C)c1cc(COc2cccc([C@@H](CC(=O)O)C3CC3)c2)ccc1-c1cc(OC)ccc1F` [Compound No. 228, (S)-3-cyclopropyl-3-(3-((2′-fluoro-5′-methoxy-2-(2-methyl-1-(prop-2-yn-1-yloxy)propan-2-yl)-[1,1′-biphenyl]-4-yl)methoxy)phenyl)propanoic acid] returned a concentration giving a half-maximal response (EC50) of 50 to 250 nM.

The compound `CCCCCCn1cc(COCC(C)(C)c2cc(COc3cccc([C@@H](CC(=O)O)C4CC4)c3)ccc2-c2cc(OC)ccc2F)nn1` [Compound No. 229, (S)-3-cyclopropyl-3-(3-((2′-fluoro-2-(1-((1-hexyl-1H-1,2,3-triazol-4-yl)methoxy)-2-methylpropan-2-yl)-5′-methoxy-[1,1′-biphenyl]-4-yl)methoxy)phenyl) propanoic acid] came in with an EC50 of 250 to 1000 nM.

`COc1ccc(F)c(-c2ccc(COc3cccc([C@@H](CC(=O)O)C4CC4)c3)cc2C(C)(C)COCc2cn(CCCCCCCCCCCCCCCCCC(=O)O)nn2)c1` [Compound No. 230] registered an EC50 of 250 to 1000 nM.

`COC(=O)CCCCCCCCCCCCCCCCCn1cc(COCC(C)(C)c2cc(COc3cccc([C@@H](CC(=O)O)C4CC4)c3)ccc2-c2cc(OC)ccc2F)nn1` [Compound No. 231, (S)-3-cyclopropyl-3-(3-((2′-fluoro-5′-methoxy-2-(1-((1-(18-methoxy-18-oxooctadecyl)-1H-1,2,3-triazol-4-yl)methoxy)-2-methylpropan-2-yl)-[1,1′-biphenyl]-4-yl)methoxy)phenyl)propanoic acid] returned a half-maximal effective concentration (EC50) of at least 5000 nM.

In turn, `COc1ccc(F)c(-c2ccc(COc3cccc([C@@H](CC(=O)O)C4CC4)c3)cc2C(OCCCCN=[N+]=[N-])C(C)(C)C)c1` (stereo partly drawn) [Compound No. 232, (3S)-3-(3-((2-(1-(4-azidobutoxy)-2,2-dimethylpropyl)-2′-fluoro-5′-methoxy-[1,1′-biphenyl]-4-yl)methoxy)phenyl)-3-cyclopropylpropanoic acid] yielded an EC50 of 1 to 50 nM.

As to `CCCCCCc1cn(CCCCCOC(c2cc(COc3cccc([C@@H](CC(=O)O)C4CC4)c3)ccc2-c2cc(OC)ccc2F)C(C)(C)C)nn1` (some centres unmarked) [Compound No. 233], the EC50 lay within 1 to 50 nM.

Compound `COc1ccc(F)c(-c2ccc(COc3cccc([C@@H](CC(=O)O)C4CC4)c3)cc2C(OCCCCCn2cc(CCCCCCCCCCCCCCCCCC(=O)O)nn2)C(C)(C)C)c1` (some centres unmarked) [Compound No. 234] registered an EC50 of 250 to 1000 nM.

With `COC(=O)CCCCCCCCCCCCCCCCCc1cn(CCCCCOC(c2cc(COc3cccc([C@@H](CC(=O)O)C4CC4)c3)ccc2-c2cc(OC)ccc2F)C(C)(C)C)nn1` (some centres unmarked) [Compound No. 235], the EC50 was at least 5000 nM.

Compound `COc1ccc(F)c(-c2ccc(COc3cccc([C@@H](CC(=O)O)C4CC4)c3)cc2C(OC)C(C)(C)CN=[N+]=[N-])c1` (stereo partly drawn) [Compound No. 236, (3S)-3-(3-((2-(3-azido-1-methoxy-2,2-dimethylpropyl)-2′-fluoro-5′-methoxy-[1,1′-biphenyl]-4-yl)methoxy)phenyl)-3-cyclopropylpropanoic acid] showed a concentration for a half-maximal effect (EC50) of 1 to 50 nM.

In turn, `COc1ccc(F)c(-c2ccc(COc3cccc([C@@H](CC(=O)O)C4CC4)c3)cc2CC(C)(C)CN=[N+]=[N-])c1` [Compound No. 237, (S)-3-(3-((2-(3-azido-2,2-dimethylpropyl)-2′-fluoro-5′-methoxy-[1,1′-biphenyl]-4-yl)methoxy)phenyl)-3-cyclopropylpropanoic acid] had an EC50 of 1 to 50 nM.

Compound `CCCCCCn1cc(-c2ccc(OC(F)(F)F)c(CN3CCC([C@H]4CCc5ccc([C@H](C6CC6)[C@H](C)C(=O)O)cc5O4)CC3)c2)nn1` [compound 187, (2S,3R)-3-cyclopropyl-3-((R)-2-(1-(5-(1-hexyl-1H-1,2,3-triazol-4-yl)-2-(trifluoro-methoxy)benzyl)piperidin-4-yl)chroman-7-yl)-2-methylpropanoic acid] returned an EC50 of 50 to 250 nM.

The compound `CCCCCCc1cn(-c2ccc(OC(F)(F)F)c(CN3CCC([C@H]4CCc5ccc([C@H](C6CC6)[C@H](C)C(=O)O)cc5O4)CC3)c2)nn1` [compound 188, (2S,3R)-3-cyclopropyl-3-((R)-2-(1-(5-(4-hexyl-1H-1,2,3-triazol-1-yl)-2-(trifluoro-methoxy)benzyl)piperidin-4-yl)chroman-7-yl)-2-methylpropanoic acid] gave an EC50 of 1 to 50 nM.

`CCCCCCc1cn(CCc2ccc(OC(F)(F)F)c(CN3CCC([C@H]4CCc5ccc([C@H](C6CC6)[C@H](C)C(=O)O)cc5O4)CC3)c2)nn1` [compound 189, (2S,3R)-3-cyclopropyl-3-((R)-2-(1-(5-(2-(4-hexyl-1H-1,2,3-triazol-1-yl)ethyl)-2-(trifluoro-methoxy)benzyl)piperidin-4-yl)chroman-7-yl)-2-methylpropanoic acid] registered an EC50 of 1 to 50 nM.

`CCCCCCn1cc(COc2ccc(OC(F)(F)F)c(CN3CCC([C@H]4CCc5ccc([C@H](C6CC6)[C@H](C)C(=O)O)cc5O4)CC3)c2)nn1` [compound 190, (2S,3R)-3-cyclopropyl-3-((R)-2-(1-(5-((1-hexyl-1H-1,2,3-triazol-4-yl)methoxy)-2-(trifluoro-methoxy)benzyl)piperidin-4-yl)chroman-7-yl)-2-methylpropanoic acid]: the EC50 fell in the range of 50 to 250 nM.

As for `C#Cc1ccc(OC(F)(F)F)c(CN2CCC([C@H]3CCc4ccc([C@H](C5CC5)[C@H](C)C(=O)O)cc4O3)CC2)c1` [compound 193, (2S,3R)-3-cyclopropyl-3-((R)-2-(1-(5-ethynyl-2-(trifluoromethoxy)benzyl)piperidin-4-yl)-chroman-7-yl)-2-methylpropanoic acid], the concentration for a half-maximal effect (EC50) lay within 1 to 50 nM.

Regarding `C[C@H](C(=O)O)[C@H](c1ccc2c(c1)O[C@H](C1CCN(Cc3cc(N=[N+]=[N-])ccc3OC(F)(F)F)CC1)CC2)C1CC1` [compound 194, (2S,3R)-3-((S)-2-(1-(5-azido-2-(trifluoromethoxy)benzyl)piperidin-4-yl)chroman-7-yl)-3-cyclopropyl-2-methylpropanoic acid], the 50% effective concentration (EC50) was 1 to 50 nM.

The compound `CCCCCCc1cn(Cc2ccc(OC(F)(F)F)c(CN3CCC([C@H]4CCc5ccc([C@H](C6CC6)[C@H](C)C(=O)O)cc5O4)CC3)c2)nn1` [compound 195, (2S,3R)-3-cyclopropyl-3-((R)-2-(1-(5-((4-hexyl-1H-1,2,3-triazol-1-yl)methyl)-2-(trifluoro-methoxy)benzyl)piperidin-4-yl)chroman-7-yl)-2-methylpropanoic acid] yielded an EC50 of 1 to 50 nM.

In turn, `CCCCCCCCCCc1ccc(OC(F)(F)F)c(CN2CCC([C@H]3CCc4ccc([C@H](C5CC5)[C@H](C)C(=O)O)cc4O3)CC2)c1` [compound 205, (2S,3R)-3-cyclopropyl-3-((R)-2-(1-(5-decyl-2-(trifluoromethoxy)benzyl)piperidin-4-yl)chroman-7-yl)-2-methylpropanoic acid] returned a half-maximal effective concentration (EC50) of 50 to 250 nM.

`COc1ccc2cc(CN=[N+]=[N-])oc2c1CN1CCC([C@H]2CCc3ccc([C@H](C4CC4)[C@H](C)C(=O)O)cc3O2)CC1` [compound 207, (2S,3R)-3-((R)-2-(1-((2-(azidomethyl)-6-methoxybenzofuran-7-yl)methyl)-piperidin-4-yl)chroman-7-yl)-3-cyclopropyl-2-methylpropanoic acid] had an EC50 of at least 5000 nM.

For `CCCCCCc1cn(Cc2cc3ccc(OC)c(CN4CCC([C@H]5CCc6ccc([C@H](C7CC7)[C@H](C)C(=O)O)cc6O5)CC4)c3o2)nn1` [compound 209, (2S,3R)-3-cyclopropyl-3-((R)-2-(1-((2-((4-hexyl-1H-1,2,3-triazol-1-yl)methyl)-6-methoxybenzofuran-7-yl)methyl)piperidin-4-yl)chroman-7-yl)-2-methylpropanoic acid], the EC50 is 1000 to 5000 nM.

Compound `C[C@H](C(=O)O)[C@H](c1ccc2c(c1)O[C@@H](C1CCN(Cc3cc(-c4cn(CCCCCCCCCCCCCCCCCC(=O)OCc5ccccc5)nn4)ccc3OC(F)(F)F)CC1)CC2)C1CC1` [compound 210, (2S,3R)-3-((R)-2-(1-(5-(1-(18-(benzyloxy)-18-oxooctadecyl)-1H-1,2,3-triazol-4-yl)-2-(trifluoromethoxy)benzyl)piperidin-4-yl)chroman-7-yl)-3-cyclopropyl-2-methylpropanoic acid] displayed an EC50 of 50 to 250 nM.
